Data taken from the CheMixHub viscosity set.

Assay: xn = mol fraction of the nth substance listed

ClC=C(Cl)Cl + O=C1CCCCC1
viscosity [mPa·s], 101.33 kPa
Details | x1 = 0.1122 | x1 = 0.2059 | x1 = 0.3057 | x1 = 0.4263 | x1 = 0.4957 | x1 = 0.4987 | x1 = 0.6177 | x1 = 0.7064 | x1 = 0.7889 | x1 = 0.9152
298.15 K | 1.589 | 1.365 | 1.215 | 1.069 | – | 0.988 | 0.883 | 0.803 | 0.739 | 0.666
308.15 K | 1.339 | 1.174 | 1.062 | 0.944 | 0.878 | – | 0.789 | 0.723 | 0.68 | 0.618
318.15 K | 1.158 | 1.034 | 0.933 | 0.835 | 0.791 | – | 0.719 | 0.672 | 0.633 | 0.582

CCCCCCCC[P+](CC)(CC)CC.N#Cc1ccc[n-]1 + OCC(O)CO
viscosity [mPa·s], 100 kPa
Details | 293.15 K | 298.15 K | 303.15 K | 313.15 K
x1 = 0.031 | 1533 | 966 | 621 | 248
x1 = 0.071 | 1550 | 996 | 617 | 248
x1 = 0.109 | 1457 | 916 | 581 | 228
x1 = 0.16 | 1330 | 825 | 540 | 240
x1 = 0.222 | 1133 | 699 | 428 | 198
x1 = 0.297 | 903 | 584 | 405 | 187
x1 = 0.393 | 672 | 437 | 289 | 150
x1 = 0.457 | 608 | 408 | 274 | 138
x1 = 0.532 | 545 | 368 | 251 | 134
x1 = 0.615 | 519 | 357 | 245 | 129
x1 = 0.742 | 434 | 291 | 197 | 105
x1 = 0.833 | 372 | 252 | 167 | 89
